In brackets after ≈: the same amount, converted by molar mass. Where two headings read alike, the source gives them in different places.

Data set [1] is described as follows: Zeta potential (zetasizer). Type of data set: physicochemical. As to conditions: Malvern zetasizer; for Zeta Potential after Conjugation: after conjugation to gelatin-capped AgInS2 QDs; for Zeta Potential before Conjugation: unconjugated ADEP1 analogue or AgInS2 QDs alone. Here is the method:
(§1) A Spectro Xepos-05 energy-dispersive X-ray fluorescence (ED-XRF, Rigaku, TX, USA) instrument was used to determine the Ag, In, and S concentrations in the gelatin-capped AgInS2 QD powder. The core sizes of AgInS2 QDs and AgInS2-ADEP1 analogue conjugates were analyzed by the high-resolution transmission electron microscope (HR-TEM, JEOL, Tokyo, Japan). Fourier transform infrared spectroscopy (FTIR) spectra were recorded using a Perkin Elmer Spectrum Two UATR-FTIR spectrometer (PerkinElmer, Buckinghamshire, UK). The Hitachi F-2700FL spectrofluorophotometer (Hitachi, Tokyo, Japan) was used for the fluorescence measurements. Malvern system 4700 zetasizer (Malvern, Great Malvern, UK) together with a dynamic light scattering (DLS) technique were used to determine the zeta potential and particle hydrodynamic size of the AgInS2 QDs and AgInS2-ADEP1 analogue conjugates using.

Data set [2] is described as follows: Hydrodynamic size by dynamic light scattering (DLS). Type of data set: physicochemical. The note with it: AgInS2 QDs alone or after conjugation with the named ADEP1 analogue. Here is the method:
as §1

Data set [3] has as its system Bacillus subtilis ATCC 11774. As to conditions: B. subtilis; free ADEP1 analogues; cited from earlier work. The source says: Table 4 MIC and MBC values of the AgInS2 QD-ADEP1 analogue conjugates and ADEP1 analogues. | column: B. subtilis / MIC µM; B. subtilis / MBC µM
Data set [4] deals with Staphylococcus aureus ATCC 25,923. As to conditions: S. aureus; free ADEP1 analogues; cited from earlier work. The source says: Table 4 MIC and MBC values of the AgInS2 QD-ADEP1 analogue conjugates and ADEP1 analogues. | column: S. aureus / MIC µM; S. aureus / MBC µM
Data set [5] deals with Methicillin-resistant Staphylococcus aureus (MRSA) ATCC 43300. The note with it: free ADEP1 analogues; cited from earlier work. From the text:
Table 4 MIC and MBC values of the AgInS2 QD-ADEP1 analogue conjugates and ADEP1 analogues. | column: MRSA / MIC µM; MRSA / MBC µM

For data set [6], the system named is Pseudomonas aeruginosa ATCC 15,442. The note with it: P. aeruginosa; free ADEP1 analogues; cited from earlier work. From the text:
Table 4 MIC and MBC values of the AgInS2 QD-ADEP1 analogue conjugates and ADEP1 analogues. | column: P. aeruginosa / MIC µM; P. aeruginosa / MBC µM

Data set [7] has as its system Escherichia coli ATCC 33,876. The note with it: E. coli; free ADEP1 analogues; cited from earlier work. The source says: Table 4 MIC and MBC values of the AgInS2 QD-ADEP1 analogue conjugates and ADEP1 analogues. | column: E. coli / MIC µM; E. coli / MBC µM
Data set [8] deals with Bacillus subtilis ATCC 11774. Description: Broth microdilution susceptibility assay (MIC) with plating on agar (MBC). The data set is classed as cell-based. The note with it: ATCC11774, B. subtilis, overnight 37 °C, conjugate concentration as loaded ADEP1 analogue. The source says: (§2) ADEP1 analogues (SC005-8) were synthesized in-house, as described by Cobongela et al., [11]. 1-Ethyl-3-(3-dimethylaminopropyl) carbodiimide (EDC), […] (sulfo-NHS), dimethyl sulfoxide (DMSO), thioglycolic acid (TGA), silver nitrate (AgNO3), sodium sulfide (Na2S·xH2O), gelatin, Dulbecco’s Modified Eagle Medium (DMEM), phosphate, trypsin, penicillin-streptomycin, fetal bovine serum (FBS), 3-(4,5-dimethylthiazol-2-yl)-5-(3-carboxymethoxyphenyl)-2-(4-sulfophenyl)-2H-tetrazolium (MTS dye), and trypan blue stain dye were all purchased from Sigma (St Louis, MO, USA). Bacillus subtilis American Type Culture Collection (ATCC) 11774, Staphylococcus aureus ATCC 25,923 and Methicillin-resistant Staphylococcus aureus (MRSA) ATCC 43300, and two Gram-negative (Escherichia coli ATCC 33,876 and Pseudomonas aeruginosa ATCC 15,442 were purchased from ATCC (Manassas, VA, USA). Human embryonic kidney 293 (HEK-293) cells were purchased from Cellonex (Randburg, Gauteng Province, South Africa).
(§3) The MIC and MBC of the AgInS2-ADEP1 analogue conjugates against B. subtilis, S. aureus, MRSA, P. aeruginosa and E. coli was determined using the broth microdilution susceptibility assay, following a previously described protocol. Briefly, overnight-grown bacterial cultures were adjusted to approximately 1.5 × 10^8 CFU/mL in a sterile Luria–Bertani broth. The concentration of ADEP1 on AgInS2-ADEP1 analogue conjugates was calculated based on the ADEP1 analogues calibration curve. AgInS2-ADEP1 analogue conjugates and ADEP1 analogues were diluted via 2-fold serial dilution with broth containing a final concentration range of 0.8–100 µM and 15.6–2000 µM, respectively. Gentamicin (concentration range between 0.007 and 6.7 mM) was used as a positive control for B. subtilis, S. aureus, MRSA, and P. aeruginosa, while ampicillin (concentration range between 0.18 and 6.7 mM) was used as a positive control for E. coli, and 5% DMSO was used as a negative control. The 96-well plates were then incubated overnight at 37 °C. […] The MBC was determined as the lowest concentration resulting in complete […].

Data set [9] has as its system Methicillin-resistant Staphylococcus aureus (MRSA) ATCC 43300. The description is as above. Type of data set: cell-based. As to conditions: overnight 37 °C, conjugate concentration as loaded ADEP1 analogue.
Source text: as §2, §3

Data set [10] has as its system Pseudomonas aeruginosa ATCC 15,442. Described as above. The data set is classed as cell-based. As to conditions: ATCC15, P. aeruginosa, overnight 37 °C, conjugate concentration as loaded ADEP1 analogue.
Source text: as §2, §3

Data set [11] deals with Staphylococcus aureus ATCC 25,923. Described as above. The data set is classed as cell-based. The note with it: ATCC25, S. aureus, overnight 37 °C, conjugate concentration as loaded ADEP1 analogue.
Source text: as §2, §3

Data set [12] concerns Escherichia coli ATCC 33,876. The data set is described as above. The data set is classed as cell-based. The note with it: ATCC33, E. coli, overnight 37 °C, conjugate concentration as loaded ADEP1 analogue.
Source text: as §2, §3

Setting [13] is: MIC wells plated on Luria-Bertani agar.
[14] abbreviates: Luria-Bertani broth, ~1.5 × 10^8 CFU/mL.

One may read the MBC as the smallest concentration meeting the test's criterion for killing. The MIC is the lowest concentration that inhibits growth of the organism. Regarding “Adamantane-FCPAAPC; L-form amino acids (disulfide) [SC007, Disulphide bond cyclized ADEP1 analogue, Adamantane-FCPAAPC, L-form amino acids]”, the “Zeta Potential after Conjugation” value in data set [1] is 1.00 ± 0.15 mV. Moreover, the “Zeta Potential before Conjugation” value in data set [1] is reported as −3.9 ± 0.8 mV. The “Hydrodynamic Diameter” value in data set [2] came to 44.4 ± 0.7 nm. Besides, the MBC in data set [3] is given as 125 µM; in [4], 125 µM; in data set [5], 500 µM; in data set [6] it was 250 µM; in [7] it was 750 µM. Moreover, the MIC is reported as 125 µM in data set [3]; 63 µM in [4]; 250 µM in data set [5]; 125 µM in [6]; 500 µM in data set [7].

On to `CNC(C)C1CCC(N)C(OC2C(N)CC(N)C(OC3OCC(C)(O)C(NC)C3O)C2O)O1` (centres unmarked) [Gentamicin], for which the MIC in data set [8] (Luria-Bertani broth, ~1.5 × 10^8 CFU/mL, no visible growth) was found to be 26.1 µM (≈ 12.5 µg/mL); in data set [9] (setting [14]), 26.2 µM (≈ 12.5 µg/mL); in [10] (setting [14]), 419 µM (≈ 200 µg/mL); in data set [11] (setting [14]), 0.5 µM (≈ 0.239 µg/mL). Further, the MBC worked out at 52.3 µM (≈ 25 µg/mL) in data set [8] (setting [13]), 52.4 µM (≈ 25 µg/mL) in data set [9] (setting [13]), 838 µM (≈ 400 µg/mL) in data set [10] (setting [13]) and 1 µM (≈ 0.478 µg/mL) in [11] (setting [13]).

On to “Palmitic acid-FCPAAPC; D-form amino acids (disulfide) [SC005, Disulphide bond cyclized ADEP1 analogue, Palmitic acid-FCPAAPC, D-form amino acids]”, for which the “Zeta Potential after Conjugation” value in data set [1] came to 1.46 ± 0.02 mV. Moreover, the “Zeta Potential before Conjugation” value in [1] was −7.2 ± 1.6 mV. Further, in data set [2], the “Hydrodynamic Diameter” value is 49.6 ± 1.6 nm. Besides, the minimal bactericidal concentration (MBC) in [3] is listed as 125 µM; in data set [4], 125 µM; in data set [5] it was 250 µM; in data set [6], 250 µM; in data set [7], 750 µM. For the same compound, the minimum inhibitory concentration (MIC) is 125 µM in data set [3]; 63 µM in data set [4]; 125 µM in data set [5]; 125 µM in data set [6]; 500 µM in data set [7].

Consider “Adamantane-FCPAAPC; D-form amino acids (disulfide) [SC006, Disulphide bond cyclized ADEP1 analogue, Adamantane-FCPAAPC, D-form amino acids]”, for which, in data set [1], the “Zeta Potential after Conjugation” value came to 1.38 ± 0.06 mV. Further, in [1], the “Zeta Potential before Conjugation” value is given as −3.8 ± 1.1 mV. Besides, in data set [2], the “Hydrodynamic Diameter” value came to 44.2 ± 1.4 nm. The minimum bactericidal concentration (MBC) is listed as 250 µM in data set [3]; 125 µM in data set [4]; 250 µM in [5]; 250 µM in data set [6]; 750 µM in data set [7]. In addition, the minimal inhibitory concentration (MIC) is 250 µM in [3]; 63 µM in [4]; 250 µM in data set [5]; 125 µM in data set [6]; 500 µM in data set [7].

Regarding `CC1(C)S[C@@H]2[C@H](NC(=O)[C@H](N)c3ccccc3)C(=O)N2[C@H]1C(=O)O` [Ampicillin], the lowest concentration to inhibit growth in data set [12] (setting [14]) (MIC) was 2860 µM (≈ 1000 µg/mL). The compound also displayed an MBC in data set [12] (setting [13]) of 5720 µM (≈ 2000 µg/mL).

As to “Palmitic acid-FCPAAPC; L-form amino acids (disulfide) [SC008, Disulphide bond cyclized ADEP1 analogue, Palmitic acid-FCPAAPC, L-form amino acids]”, the “Zeta Potential after Conjugation” value in data set [1] came to 1.39 ± 0.09 mV. Moreover, the “Zeta Potential before Conjugation” value in data set [1] was −6.9 ± 1.5 mV. In data set [2], the “Hydrodynamic Diameter” value was 50.3 ± 1.6 nm. The MBC is listed as 125 µM in data set [3]; 125 µM in [4]; 500 µM in data set [5]; 250 µM in data set [6]; 750 µM in data set [7]. Moreover, the MIC in data set [3] is on record as 125 µM; in [4], 63 µM; in data set [5] it was 250 µM; in data set [6], 125 µM; in [7], 500 µM.
